Results from publication PMC5011342, “A high throughput drug screening assay to identify compounds that promote oligodendrocyte differentiation using acutely dissociated and purified oligodendrocyte precursor cells” (BMC Research Notes, 2016).
Entries after “also recorded” stand apart in the source; their conditions may differ. Read-outs that look alike come from different tables or passages of the source.

How the values were obtained:
[1] = test system: acutely dissociated and purified rat OPCs; test: Acute OL differentiation assay (MBP expression/cell, immunofluorescent image quantification); assay type: cell-based; conditions: for activation at 2 µM / activation at 10 µM / activation at 0.08 µM / activation at 0.4 µM / EC50: Rattus norvegicus; for activation at 0.08 µM: test compound at 0.08 uM, read-out: 0.08 uM (% Quet); for hit in OL differentiation assay, MRF-TMC: ● = confirmed hit in this paper's assay; for EC50: average EC50 for induction of OL differentiation from independent biological replicates, eight concentrations
Experimental: In order to identify compounds with the potential to promote OL differentiation in vivo and thereby enhance remyelination, we first wanted to establish an in vitro assay system that would closely mimic conditions in vivo. To do this, we started by using OPCs acutely isolated from postnatal day 6–7 (P6–7) rat brains by O4 immunopanning. […] OPCs were plated directly onto a biological substrate (PDL/laminin) in 96-well view plates at moderate density to allow for sufficient room to expand processes during differentiation. We plated cells in serum-free medium lacking OPC mitogens (no PDGF or FGF) to allow a basal level of OL differentiation to commence, and as a positive control added thyroid hormone (T3, 40 ng/ml) to accelerate differentiation (Fig. 1, flow scheme).
Fig. 1 Flow scheme of the acute OL differentiation assay. a Purified oligodendrocyte precursor cells (OPCs) were cultured from P7 rat cortex and plated into PDL/laminin pre-coated 96-well plates. b One hour later test compounds were added. c OPC cultures with compound were maintained in culture for an additional 4 days. d On the 5th day with compound, cells were fixed and immunostained with anti-MBP antibodies and DAPI. e Images were acquired with automated fluorescence microscopy and scored phenotypically for OL differentiation (see “Methods” section)
To quantify the extent of OL differentiation occurring in treatment conditions, we measured the overall amount of MBP expression/cell (see “Methods” section). Figure 2a depicts the mask created over MBP staining under which the MBP expression was quantified. […]
All animal work was carried out in strict accordance with the recommendations in the Guide for the Care and Use of Laboratory Animals of the National Institutes of Health. The protocol was approved by the Institutional Use and Care and Use Committee at the Molecular Medicine Research Institute (Sunnyvale, CA). Animals used for OPC isolation in these studies were euthanized by decapitation. OPCs from brains of P6-P7 Sprague–Dawley rat pups (Charles River, Wilmington, MA, USA) were enriched by immunopanning as previously described (Dugas et al. 2006). Briefly, single cell suspensions were obtained from papain-digested neonatal brains and depleted of mature glial cells by successive panning with RAN-2- and GalC-coated plates, followed by enrichment for OPCs using O4-coated plates. OPCs were plated in differentiation media (DMEM, 100 U/ml Penicillin/100 µg/ml streptomycin, 2 mM L-glutamine, 1 mM Na pyruvate, 5 µg/ml insulin, 5 µg/ml N-acetyl-L-cysteine, 1× trace elements B,10 ng/ml d-Biotin, 100 µg/ml BSA, 100 µg/ml apo-transferrin, 16 µg/ml putrescine, 60 ng/ml progesterone, 40 ng/ml sodium selenite 5 ng/ml forskolin, 10 ng/ml CNTF, 1 ng/ml NT-3).
Acutely enriched OPCs were plated in differentiation media at 5000 cells/well into PDL/laminin coated 96-well view plates and centrifuged at 200×g to facilitate cell attachment, survival, and even distribution of OPCs. OPCs were pre-incubated for 1–2 h at 37 °C in 10 % CO2, followed by the addition of test compounds in quadruplicate. Controls were added in eight replicate wells, negative control = 0.1 % DMSO; positive control = 40 ng/ml T3. The day of OPC plating was considered DIV0. On DIV4, cells were fixed, immunostained for myelin basic protein (MBP) expression, imaged and quantified as described below.

[2] = test system: expanded OPCs; test: cells; conditions: for viability at 0.1 µM / viability at 1 µM / viability at 10 µM: Rattus norvegicus, 72 h
Experimental: Having established a consistent assay for measuring OL differentiation in vitro, the next step was to utilize this assay to assess the ability of a wide array of compounds to promote OL differentiation. Prior to library screening, we first established the maximum non-toxic dose of each compound in the library. […] Therefore, we added each compound in the NIH clinical collection (NCC) library to OPCs at 10, 1, and 0.1 µM concentrations. Three days later, we assessed viability of the treated cells by measuring AlamarBlue fluorescence, a measure of cell viability (see “Methods” section). […] Appropriately, we established three sets of screening concentrations for library compounds: non-toxic compounds were tested at 10 and 2 µM, slightly toxic compounds (only toxic at 10 µM) were tested at 2 and 0.4 µM, and very toxic compounds were tested at 0.4 and 0.08 µM.
OPCs were expanded in vitro by seeding into PDL-coated tissue culture flasks at 1000–2000 cells/cm^2 in differentiation media supplemented with 10 ng/ml PDGF-AA. Proliferating OPCs were fed every 2–3 days and supplemented with 2–3× concentration of PDGF as needed to prevent OPC differentiation. After 6–7 days of proliferation, OPCs were harvested by trypsinization, plated into PDL-coated 96-well Falcon plates and centrifuged at 200×g to facilitate cell attachment, survival, and even distribution of cells. Expanded OPCs were seeded in differentiation media at 10,000 cells/well and incubated for 2 h at 37 °C, 10 % CO2 prior to addition of compounds. The NCC library was diluted and added to cells at 10, 1, and 0.1 µM; each concentration was tested in quadruplicate. As a positive control for the induction of toxicity, 5 ng/ml tunicamycin was added to 8 wells in each plate. Three days later, a 1:10 dilution of alamarBlue® (AB) was added to each well and cells were incubated 4 h at 37 °C, 10 % CO2. AB fluorescence was measured using a PerkinElmer Victor II fluorescence microplate reader (PerkinElmer, Waltham, MA) with 560 nm excitation/590 nm emission filters. For library screening, the highest concentration of each compound was adjusted to a minimally toxic concentration based on this toxicity data. Compounds were additionally tested at a second concentration that was 1/5th of the top concentration. The final concentration of DMSO in each well was 0.1 %.

[3] = 2 uM test compound, relative to quetiapine, sheet "All OLga data"
[4] = 10 uM test compound, relative to quetiapine, sheet "All OLga data"
[5] = alamarBlue viability of expanded OPCs, compound at 0.1 µM, sheet All Tox data
[6] = alamarBlue viability of expanded OPCs, compound at 1 µM, sheet All Tox data
[7] = alamarBlue viability of expanded OPCs, compound at 10 µM, sheet All Tox data
[8] = 2 uM test compound, relative to quetiapine, sheet "All OLga data", read-out: OL differentiation, 2 uM (% Quet)
[9] = 10 uM test compound, relative to quetiapine, sheet "All OLga data", read-out: OL differentiation, 10 uM (% Quet)
[10] = read-out: 0.1 µM (% DMSO), alamarBlue viability of expanded OPCs, compound at 0.1 µM, sheet All Tox data
[11] = read-out: 1 µM (% DMSO), alamarBlue viability of expanded OPCs, compound at 1 µM, sheet All Tox data
[12] = read-out: 10 µM (% DMSO), alamarBlue viability of expanded OPCs, compound at 10 µM, sheet All Tox data
[13] = NCC library screen, sheet "All OLga data", relative to quetiapine
[14] = test compound at 0.4 uM, NCC library screen, sheet "All OLga data", relative to quetiapine, read-out: 0.4 uM (% Quet)
[15] = read-out: 0.1 µM (% DMSO), alamarBlue viability, NCC library compound at 0.1 µM, sheet "All Tox data"
[16] = read-out: 1 µM (% DMSO), alamarBlue viability, NCC library compound at 1 µM, sheet "All Tox data"
[17] = read-out: 10 µM (% DMSO), alamarBlue viability, NCC library compound at 10 µM, sheet "All Tox data"
[18] = test compound at 2 uM, NCC library screen, sheet "All OLga data", relative to quetiapine, read-out: 2 uM (% Quet)
[19] = test compound at 10 uM, NCC library screen, sheet "All OLga data", relative to quetiapine, read-out: 10 uM (% Quet)
[20] = alamarBlue viability of expanded OPCs, compound at 0.1 µM, relative to DMSO control
[21] = alamarBlue viability of expanded OPCs, compound at 1 µM, relative to DMSO control
[22] = alamarBlue viability of expanded OPCs, compound at 10 µM, relative to DMSO control

Cl.FC(F)(F)c1cccc(N2CCNCC2)c1
OL differentiation, 2 uM (% Quet) [1, 3]: 23.8 % Quet | OL differentiation, 10 uM (% Quet) [1, 4]: 20.8 % Quet | 0.1 µM (% DMSO) [2, 5]: 91.5 % DMSO | 1 µM (% DMSO) [2, 6]: 101.9 % DMSO | 10 µM (% DMSO) [2, 7]: 76.4 % DMSO

CC=CC(=O)N(CC)c1ccccc1C (mixture of isomers) [Crotamiton]
activation at 2 µM [1, 8]: 1.7% | activation at 10 µM [1, 9]: 1.9% | viability at 0.1 µM [2, 10]: 92.3% | viability at 1 µM [2, 11]: 106% | viability at 10 µM [2, 12]: 97.8%

Oc1cc2c(cc1O)[C@H]1c3ccccc3CN[C@@H]1CC2 (racemic) [Dihydrexidine]
activation at 0.08 µM [1, 13]: -13.3% | activation at 0.4 µM [1, 14]: -27.6% | viability at 0.1 µM [2, 15]: 81.4% | viability at 1 µM [2, 16]: 37.9% | viability at 10 µM [2, 17]: 9.8%

c1ccc(Cn2ccnc2)cc1 [1-Benzylimidazole]
activation at 2 µM [1, 18]: 0.1% | activation at 10 µM [1, 19]: 10.7% | viability at 0.1 µM [2, 15]: 85.4% | viability at 1 µM [2, 16]: 91.8% | viability at 10 µM [2, 17]: 94.3%

O=c1[nH]cnc2c1ncn2[C@H]1CC[C@@H](CO)O1 [2',3'-Dideoxyinosine]
activation at 2 µM [1, 8]: 10% | activation at 10 µM [1, 9]: -0.07% | viability at 0.1 µM [2, 10]: 88.6% | viability at 1 µM [2, 11]: 88.2% | viability at 10 µM [2, 12]: 86.2%

NCCc1ccccn1 [2-(2-aminoethyl)pyridine]
activation at 2 µM [1, 18]: 20.5% | activation at 10 µM [1, 19]: 16.9% | viability at 0.1 µM [2, 15]: 97.5% | viability at 1 µM [2, 16]: 81.9% | viability at 10 µM [2, 17]: 73.2%

Nc1nc(Cl)nc2c1ncn2[C@@H]1O[C@H](CO)[C@@H](O)[C@H]1O [2-Chloroadenosine]
OL differentiation, 2 uM (% Quet) [1, 3]: 8.0 % Quet | OL differentiation, 10 uM (% Quet) [1, 4]: 32.5 % Quet | 0.1 µM (% DMSO) ([2]; alamarBlue viability, NCC library compound at 0.1 µM, sheet "All Tox data"): 113.1 % DMSO | 1 µM (% DMSO) ([2]; alamarBlue viability, NCC library compound at 1 µM, sheet "All Tox data"): 99.2 % DMSO | 10 µM (% DMSO) ([2]; alamarBlue viability, NCC library compound at 10 µM, sheet "All Tox data"): 99.5 % DMSO

O=C1NC(C(=O)O)CS1 (centres unmarked) [2-oxothiazolidine-4-carboxylic acid]
OL differentiation, 2 uM (% Quet) [1, 3]: -5.5 % Quet | OL differentiation, 10 uM (% Quet) [1, 4]: 20.5 % Quet | 0.1 µM (% DMSO) [2, 5]: 78.9 % DMSO | 1 µM (% DMSO) [2, 6]: 89.6 % DMSO | 10 µM (% DMSO) [2, 7]: 83.7 % DMSO

O=C(O)CCCc1ccccc1 [4-Phenylbutyric acid]
activation at 2 µM [1, 18]: 9% | activation at 10 µM [1, 19]: -4.1% | 0.1 µM (% DMSO) [2, 20]: 90.4 % DMSO | 1 µM (% DMSO) [2, 21]: 91.7 % DMSO | 10 µM (% DMSO) [2, 22]: 104.6 % DMSO

O=c1[nH]cc(F)c(=O)[nH]1 [5-Fluorouracil]
activation at 0.08 µM [1, 13]: -10.8% | activation at 0.4 µM [1, 14]: -21.3% | 0.1 µM (% DMSO) [2, 20]: 80.9 % DMSO | 1 µM (% DMSO) [2, 21]: 26.6 % DMSO | 10 µM (% DMSO) [2, 22]: 12.2 % DMSO

COc1ccc2[nH]cc(CCN)c2c1 [5-Methoxytryptamine]
activation at 2 µM [1, 18]: 2.6% | activation at 10 µM [1, 19]: 4.2% | viability at 0.1 µM [2, 15]: 82.9% | viability at 1 µM [2, 16]: 83.6% | viability at 10 µM [2, 17]: 78.8%

COc1cc2c(cc1OC)C(=O)C(CC1CCN(Cc3ccccc3)CC1)C2 (centres unmarked) [Donepezil, reference compound]
activation at 2 µM [1, 8]: 94.8% | activation at 10 µM [1, 9]: 75.6% | hit in OL differentiation assay, MRF-TMC [1]: ●

CN(C)CCC[C@@]1(c2ccc(F)cc2)OCc2cc(C#N)ccc21 [Escitalopram, reference compound]
EC50 [1]: 1.3 µM | hit in OL differentiation assay, MRF-TMC [1]: ●

COc1ccc(CC(C)NCC(O)c2ccc(O)c(NC=O)c2)cc1 (centres unmarked) [Formoterol]
activation at 2 µM ([1]; read-out: 2 uM (% Quet)): 4.6% | activation at 10 µM ([1]; read-out: 10 uM (% Quet)): 12.1%

CC1CCN(CCCC(=O)c2ccc(F)cc2)CC1 [Metylperon, reference compound]
EC50 [1]: 7.3 µM | hit in OL differentiation assay, MRF-TMC [1]: ●

COc1c(N2C[C@@H]3CCCN[C@@H]3C2)c(F)cc2c(=O)c(C(=O)O)cn(C3CC3)c12 [Moxifloxacin]
activation at 2 µM [1, 8]: 20.2% | activation at 10 µM [1, 9]: 16.3%

COC(=O)C1=C(C)NC(C)=C(C(=O)OC)C1c1ccccc1[N+](=O)[O-] [Nifedipine]
activation at 0.4 µM ([1]; 0.4 uM test compound, relative to quetiapine, sheet "All OLga data", read-out: OL differentiation, 0.4 uM (% Quet)): 19.7% | activation at 2 µM [1, 8]: -8.9%

Nc1nc2ccc(OC(F)(F)F)cc2s1 [Riluzole]
activation at 2 µM [1, 8]: -11.1% | activation at 10 µM [1, 9]: 32.6%

N[C@@H](Cc1cc(I)c(Oc2ccc(O)c(I)c2)c(I)c1)C(=O)O [T3, triiodothyronine, reference compound]
promotion of OL differentiation (in words) ([1]; MBP expression versus 0.1 % DMSO negative control): able to promote OL differentiation at one or both concentrations tested; also recorded: consistently and significantly promote OL differentiation
